Source: US20230257444A1, “FUSION PROTEIN AND COMBINATIONS THEREOF” (Agency for Science, Technology and Research, priority 2020, published 2023)

Key:
SC5314 Candida albicans = experiment: In vitro combination therapy checkerboard dilution assay (Amphotericin B & hDectin1-Fc) with human primary macrophages; format: cell-based; settings: 24 hours, 37° C.
Candida albicans = experiment: Minimum inhibitory concentration assay (CLSI reference method); format: cell-based; settings: 37° C.
Description: Linker conjugation site and its length can affect the activity of drug in the way it is able to interact with its target as a result of a change in preferred conformation. Amphotericin B has two possible sites of conjugation: the carboxylic acid on the macrocyclic ring (C-linked) and the amine on the sugar (N-linked). To investigate how conjugation to each of these sites affects the activity of Amphotericin B, polyethylene glycol (PEG) linkers of three different repeat units were attached to them (FIG. 20) and their MIC of Candida albicans evaluated against the unconjugated free Amphotericin B.
The MIC assay of the N-linked and C-linked PEG conjugated Amphotericin B was conducted for 3 different PEG lengths of 4, 12 and 24 repeat units versus unconjugated Amphotericin B (Table 3). The PEG conjugated Amphotericin B and free Amphotericin B were diluted and incubated at 37° C. for 24 hrs with […] Candida albicans cells/well according to the CLSI reference method for antifungal susceptibility testing of yeasts.

24hr MIC (Candida albicans): 0.75 μm
Compound: C[C@@H]1[C@H](O)[C@@H](C)/C=C/C=C/C=C/C=C/C=C/C=C/C=C/[C@H](O[C@@H]2O[C@H](C)[C@@H](O)[C@H](N)[C@@H]2O)C[C@@H]2O[C@](O)(C[C@@H](O)C[C@@H](O)[C@H](O)CC[C@@H](O)C[C@@H](O)CC(=O)O[C@H]1C)C[C@H](O)[C@H]2C(=O)O [Amphotericin B]
basal MFC of Amphotericin B (SC5314 Candida albicans; absence of hDectin1-Fc): 0.11 µM
MFC of Amphotericin B (SC5314 Candida albicans; hDectin1-Fc concentration of 100 µg/ml): 0.06 µM
